Laboratory results taken from publication PMC8704707 (Pharmaceuticals, 2021).
“And” between values parts separate entries of the source, which are not always exact repeats. Equal values may be shown once. Read-outs that look alike come from different tables or passages of the source.

Tests used:
[1] = system: Staphylococcus aureus ATCC 29213; assay: Antibacterial microdilution broth method (EUCAST); assay type: cell-based
[2] = system: methicillin-resistant Staphylococcus aureus ATCC 43300; assay: Antibacterial microdilution broth method (EUCAST); assay type: cell-based; conditions: ATCC 43300 / MRSA
[3] = system: Staphylococcus epidermidis ATCC 12228; assay: Antibacterial microdilution broth method (EUCAST); assay type: cell-based
[4] = system: Enterococcus faecalis ATCC 29212; assay: Antibacterial microdilution broth method (EUCAST); assay type: cell-based
[5] = system: Escherichia coli ATCC 25922; assay: Antibacterial microdilution broth method (EUCAST); assay type: cell-based
[6] = system: Acinetobacter baumannii ATCC 19606; assay: Antibacterial microdilution broth method (EUCAST); assay type: cell-based
[7] = system: Pseudomonas aeruginosa ATCC 27853; assay: Antibacterial microdilution broth method (EUCAST); assay type: cell-based
[8] = system: Candida albicans ATCC 24443; assay: microbe, parasite or virus in culture; assay type: cell-based
Candida krusei ATCC 6258 = assay: microbe, parasite or virus in culture; assay type: cell-based; conditions: Pichia kudriavzevii
[9] = system: Candida parapsilosis ATCC 22019; assay: microbe, parasite or virus in culture; assay type: cell-based; conditions: Lodderomyces parapsilosis
[10] = system: Candida tropicalis ATCC 750; assay: microbe, parasite or virus in culture; assay type: cell-based
[11] = system: Trichophyton interdigitale ATCC 9533; assay: microbe, parasite or virus in culture; assay type: cell-based
[12] = biological target: AChE from electric eel (EeAChE) (Electrophorus electricus, UniProt O42275); assay: biochemical; assay type: biochemical
[13] = biological target: BuChE from equine serum (EqBuChE) (Equus caballus, UniProt P81908); assay: biochemical; conditions: for IC50: read-out: IC50 BuChE
[14] = system: Klebsiella pneumoniae ATCC 10031; conditions: for MIC KP 24 h: 24 h incubation; for MIC KP 48 h: 48 h incubation
HepG2 cells [15] = conditions: read-out: IC50 cytotoxicity towards HepG2 cell line
Method: (§1) Cytotoxicity of the tested compounds was measured using the standard hepatic cell line HepG2. The used CellTiter 96® assay is based on the reduction of tetrazolium dye (MTS) in living cells to formazan, which is then determined colorimetrically.

in vitro [16] = conditions: human, HepG2 cells
Method: as §1

in vitro [17] = conditions: human, HepG2 cells; remark: listed apart in the source
HepG2 cells [18] = assay: LDH release assay (CytoTox 96), membrane integrity; conditions: read-out: EC50 LDH release assay
[19] = ATCC29213, 24 h, read-out: MIC SA 24 h
[20] = ATCC29213, 48 h, read-out: MIC SA 48 h
[21] = ATCC12228, 24 h, read-out: MIC SE 24 h
[22] = ATCC12228, 48 h, read-out: MIC SE 48 h
[23] = ATCC29212, 24 h, read-out: MIC EF 24 h
[24] = ATCC29212, 48 h, read-out: MIC EF 48 h
[25] = ATCC25922, 24 h, read-out: MIC EC 24 h
[26] = ATCC25922, 48 h, read-out: MIC EC 48 h
[27] = ATCC19606, 24 h, read-out: MIC ACI 24 h
[28] = ATCC19606, 48 h, read-out: MIC ACI 48 h
[29] = ATCC27853, 24 h, read-out: MIC PA 24 h
[30] = ATCC27853, 48 h, read-out: MIC PA 48 h
[31] = ATCC24443, 24 h, read-out: MIC CA 24 h
[32] = ATCC24443, 48 h, read-out: MIC CA 48 h
[33] = ATCC6258, 24 h, read-out: MIC CK 24 h
[34] = ATCC6258, 48 h, read-out: MIC CK 48 h
[35] = ATCC22019, 24 h, read-out: MIC CP 24 h
[36] = ATCC22019, 48 h, read-out: MIC CP 48 h
[37] = ATCC750, 24 h, read-out: MIC CT 24 h
[38] = ATCC750, 48 h, read-out: MIC CT 48 h
[39] = ATCC9533, 72 h, read-out: MIC TI 72 h
[40] = ATCC9533, 120 h, read-out: MIC TI 120 h

BuChE from equine serum (EqBuChE), sequence (P81908 whole entry): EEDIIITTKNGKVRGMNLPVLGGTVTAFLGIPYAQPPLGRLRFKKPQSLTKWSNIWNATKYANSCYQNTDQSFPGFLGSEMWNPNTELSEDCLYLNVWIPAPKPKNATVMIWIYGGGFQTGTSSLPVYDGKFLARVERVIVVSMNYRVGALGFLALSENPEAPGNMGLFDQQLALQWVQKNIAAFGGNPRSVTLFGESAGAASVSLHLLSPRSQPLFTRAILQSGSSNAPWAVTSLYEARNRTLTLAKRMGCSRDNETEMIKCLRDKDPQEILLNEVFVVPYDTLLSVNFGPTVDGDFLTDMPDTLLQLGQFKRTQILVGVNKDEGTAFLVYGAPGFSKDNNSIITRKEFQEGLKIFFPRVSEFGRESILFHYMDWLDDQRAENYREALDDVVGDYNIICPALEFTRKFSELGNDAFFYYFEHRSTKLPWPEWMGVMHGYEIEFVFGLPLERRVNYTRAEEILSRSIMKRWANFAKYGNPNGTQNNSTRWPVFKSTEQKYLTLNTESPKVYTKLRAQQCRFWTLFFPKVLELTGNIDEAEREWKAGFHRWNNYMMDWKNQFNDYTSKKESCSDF
AChE from electric eel (EeAChE), sequence (O42275 24-633): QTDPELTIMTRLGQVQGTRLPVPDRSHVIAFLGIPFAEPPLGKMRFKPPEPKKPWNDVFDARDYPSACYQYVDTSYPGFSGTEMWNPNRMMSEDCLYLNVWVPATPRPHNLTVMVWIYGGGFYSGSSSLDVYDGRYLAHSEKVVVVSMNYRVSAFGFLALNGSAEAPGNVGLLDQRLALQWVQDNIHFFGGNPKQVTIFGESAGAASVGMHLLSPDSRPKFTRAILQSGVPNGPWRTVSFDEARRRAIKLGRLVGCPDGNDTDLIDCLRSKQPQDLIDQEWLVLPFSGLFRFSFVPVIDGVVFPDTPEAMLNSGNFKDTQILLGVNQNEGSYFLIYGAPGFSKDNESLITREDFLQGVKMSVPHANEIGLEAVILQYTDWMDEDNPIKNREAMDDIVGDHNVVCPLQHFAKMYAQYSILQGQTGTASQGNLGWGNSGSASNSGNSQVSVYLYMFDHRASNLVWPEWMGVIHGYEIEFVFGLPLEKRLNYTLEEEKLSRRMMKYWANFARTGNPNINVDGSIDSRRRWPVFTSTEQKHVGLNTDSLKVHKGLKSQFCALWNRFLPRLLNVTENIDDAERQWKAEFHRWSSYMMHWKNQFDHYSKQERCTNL

`CC(=O)Oc1c(I)cc(I)cc1/C=N/NC(=N)N` [Compound 2a, (E)-2-[(2-Carbamimidoylhydrazineylidene)methyl]-4,6-diiodophenyl acetate] gave an MIC [1, 19] of 125 µM, an MIC [1, 20] of 125 µM and an MIC ([2]; 24 h, read-out: MIC MRSA 24 h) of 125 µM. For the same compound, the MIC ([2]; 48 h, read-out: MIC MRSA 48 h) was 125 µM, the MIC [3, 21] was 250 µM and the MIC [3, 22] was 250 µM. It also gave an MIC [4, 23] of 250 µM, an MIC [4, 24] of 250 µM and an MIC [5, 25] of 250 µM. The MIC [5, 26] was 250 µM, the MIC [6, 27] was 500 µM and the MIC [6, 28] was 500 µM. For the same compound, the MIC [7, 29] was over 500 µM, the MIC [7, 30] was over 500 µM and the MIC [8, 31] was 125 µM. For the same compound, the MIC [8, 32] was 125 µM, the MIC (Candida krusei ATCC 6258; [33]) was 500 µM and the MIC (Candida krusei ATCC 6258; [34]) was 500 µM. For the same compound, the MIC [9, 35] was 500 µM, the MIC [9, 36] was 500 µM and the MIC [10, 37] was 500 µM. The MIC [10, 38] was 500 µM, the MIC [11, 39] was 62.5 µM and the MIC [11, 40] was 125 µM. The “Selectivity AChE/BuChE” value [12] was 4.54, the “Type of inhibition of AChE” value [12] was “mixed inhibition” and the IC50 ([12]; mean ± SD, n = three independent experiments, ATCh 40 µM, read-out: IC50 AChE) was 20.5 ± 0.48 µM. The “Type of inhibition of BuChE” value [13] was “mixed inhibition”, the IC50 ([13]; mean ± SD, n = three independent experiments, BTCh 40 µM) was < 20 µM and 4.52 µM and the “MIC KP 24 h” value [14] was 250 µM. The “MIC KP 48 h” value [14] was 250 µM, the IC50 (HepG2 cells [15]; CellTiter 96, 24 h incubation) was 31.3 µM and the IC50 at 24 h (in vitro [16]) was over 29 µM. For the same compound, the EC50 at 24 h (in vitro [17]) was over 20 µM and the EC50 (HepG2 cells [18]; HepG2, 24 h incubation) was 30.4 µM.

`Cl.N=C(NN)N/N=C/c1cc(I)cc(I)c1O` [Compound 2e, (E)-Hydrazineyl[2-(2-hydroxy-3,5-diiodobenzylidene)hydrazineyl]methaniminium chloride] showed an MIC [1, 19] of 62.5 µM, an MIC [1, 20] of 125 µM and an MIC ([2]; 24 h, read-out: MIC MRSA 24 h) of 125 µM. The MIC ([2]; 48 h, read-out: MIC MRSA 48 h) was 125 µM, the MIC [3, 21] was 31.2 µM and the MIC [3, 22] was 31.2 µM. For the same compound, the MIC [4, 23] was over 125 µM, the MIC [4, 24] was over 125 µM and the MIC [5, 25] was over 125 µM. The MIC [5, 26] was over 125 µM, the MIC [6, 27] was over 125 µM and the MIC [6, 28] was over 125 µM. The MIC [7, 29] was over 125 µM, the MIC [7, 30] was over 125 µM and the MIC [8, 31] was 125 µM. It also gave an MIC [8, 32] of 125 µM, an MIC (Candida krusei ATCC 6258; [33]) of 125 µM and an MIC (Candida krusei ATCC 6258; [34]) of 125 µM. For the same compound, the MIC [9, 35] was 125 µM, the MIC [9, 36] was 125 µM and the MIC [10, 37] was 125 µM. It also gave an MIC [10, 38] of 125 µM, an MIC [11, 39] of 125 µM and an MIC [11, 40] of 125 µM. The IC50 [12] was 28.2 ± 0.98 µM, the “Type of inhibition of BuChE” value [13] was “mixed inhibition” and the IC50 [13] was 1.69 ± 0.17 µM. The “MIC KP 24 h” value [14] was over 125 µM, the “MIC KP 48 h” value [14] was over 125 µM and the IC50 (HepG2 cells [15]) was 120 µM. For the same compound, the IC50 at 24 h (in vitro [16]) was over 100 µM, the EC50 at 24 h (in vitro [17]) was over 100 µM and the EC50 (HepG2 cells [18]) was 132 µM.
